Measurements taken from US20110053163A1, “Biomarker” (BIOVATOR TECHNOLOGIES AB, priority 2007, published 2011).
Like-named read-outs stand apart in the source and are kept apart here.

Columns and labels:
Type in all cases: cell-based, human
MonoMac-6 cells = assay: Cytokine Profile Assay (CPA): neopterin production by stimulated MonoMac-6 cells, ELISA; details: for neopterin release (in words): chemicals, in the presence or absence of IFN-γ
Source text: (§1) The instructions of the manufacturers were followed. All these tests are enzyme immunoassays (EIA:s). The principle is that microtiter plate wells are labelled with a cytokine specific capture antibody. If cytokine is present in the samples added to the wells it will be captured to the bottom of the well. […] The reaction is thereafter measured as colour developed after addition of a substrate for the enzyme. The values for the test wells are compared with a standard curve obtained by adding a series of known amounts of cytokine. The values obtained for control wells with no substance added are used as background values for cytokine levels.
The myelomonocytic cell line MonoMac-6 (obtained from DSMZ, accession number ACC 124, Prof. H. W. L. Ziegler-Heitbrock, Inst. For Immunology, University of Munich, Munich) was cultured in cell culture flasks (Corning). Cells were cultured in RPMI 1640 medium (Gibco BRL), containing 20 mM HEPES and L-glutamine and supplemented with 10% heat-inactivated foetal bovine serum (Gibco BRL), penicillin (100 U/mL; Sigma-Aldrich), streptomycin (100 μg/mL; Sigma-Aldrich), sodium pyruvate (1.0 mM;Gibco BRL), human insulin (9 μg/mL; Gibco BRL) and non-essential amino acids (Gibco BRL) or cultured in Panserin 411 (Pan Biotech) supplemented with penicillin (100 U/mL), streptomycin (100 μg/mL).
The cells were split approximately 1:3 the day before stimulation. The stimulation procedure was performed in three steps. The first step was pre-dilution of test substances, to double the final concentration, in cell culture medium. Furthermore, Interferon-γ (IFN-γ) (100 U, PreproTech) was added in the cell culture media for 24 or 48 hours during stimulation of cells with test substances. The number of cells was then determined by trypan blue exclusion and the cells were diluted to twice the final test concentration (2×10^6 cells/mL) if not otherwise indicated and 100 μl of cell suspension was added per well in 96 well tissue culture plates (Corning). Finally, a 100 μl of pre-diluted test substance (triplicate cultures) was added to the tissue culture plates. […] The stimulated cells were cultured at 37° C., 5% CO2, for 24 or 48 hours. The cell suspension was transferred to new cell culture plates and stored at −20° C. until analyzed. Thereafter the cell suspension was analyzed for presence of neopterin and IL-10 by ELISA (IBL-Hamburg) following the manufacturers instructions.

THP-1 cells = assay: CPA: neopterin production by stimulated THP-1 cells; details: RPMI+10% FCS, 24 hrs, different concentrations
Source text: as §1
(§2) The cells were split approximately 1:3 the day before stimulation. The stimulation procedure was performed in three steps. The first step was pre-dilution of test substances, to double the final concentration, in cell culture medium. […] The number of cells was then determined by trypan blue exclusion and the cells were diluted to twice the final test concentration (2×10^6 cells/mL) if not otherwise indicated and 100 μl of cell suspension was added per well in 96 well tissue culture plates (Corning). […] The cell suspension was transferred to new cell culture plates and stored at −20° C. until analyzed. Thereafter the cell suspension was analyzed for presence of neopterin and IL-10 by ELISA (IBL-Hamburg) following the manufacturers instructions.

MM6-cells = assay: CPA: IL-10 levels of stimulated MM6 cells, ELISA; details: 25-200 μg/ml; 48 hours; with IFN-γ 100 U/ml
Source text: as §1, with “levels. […]” for “levels.”
as §2, with “stimulation.” for “stimulation. The stimulation procedure was performed in three steps. The first step was pre-dilution of test substances, to double the final concentration, in cell culture medium.”

[1] = proteins, RPMI+10% FCS, 24 hrs, with IFN-γ 100 U/ml, over the tested concentrations

## Soy lectin: Lectin: glycine max (soy been) (Medicago), low potential of being allergenic
MonoMac-6 cells; 6.6 μg/ml, RPMI+10% FCS, 24 hrs, with IFN-γ
  neopterin response (in words): did not induce any neopterin response above the levels of control cells
MonoMac-6 cells; 180 μg/ml, RPMI+10% FCS, 24 hrs, with IFN-γ
  neopterin response (in words): comparable to the cellular response towards Ara h 2 at 6.6 μg/ml
MonoMac-6 cells; [1]
  neopterin response (in words): Weak cellular neopterin responce
MonoMac-6 cells; proteins, RPMI+10% FCS, 24 hrs, with IFN-γ 100 U/ml, over the tested concentrations, listed as soy lectin
  neopterin response (in words): did not induce neopterin above background levels

## O=[N+]([O-])c1ccc(Cl)c([N+](=O)[O-])c1 [DNCB, 2,4 Dinitrocholorobenzene, reference compound]
MonoMac-6 cells; RPMI+10% FCS, 24 hrs
  neopterin release (in words): none of the chemicals tested induced any neopterin release above background levels

## Oc1ccccc1 [phenol, reference compound]
MonoMac-6 cells
  neopterin response (in words): induced a neopterin response above background levels

## [Cl][Pt-2]([Cl])([Cl])([Cl])([Cl])[Cl].[NH4+].[NH4+] [HCPt, Ammonium hexachloroplatinate, reference compound]
MonoMac-6 cells; RPMI+10% FCS, 24 hrs
  neopterin release (in words): none of the chemicals tested induced any neopterin release above background levels

## Lipopolysaccharide [LPS]
THP-1 cells
  neopterin response (in words): Dose response was seen

## gelatin
MonoMac-6 cells; [1]
  neopterin response (in words): did not induce any neopterin production above the background levels
MM6-cells
  IL-10 levels (in words): did not induce IL-10 above background levels

## CCOC(=O)c1ccc(N)cc1 [benzocaine, Benzocaine, reference compound]
MonoMac-6 cells; chemical at 30 μg/ml, with IFN-γ, RPMI+10% FCS, 24 hrs
  neopterin response (in words): induced a neopterin response above background levels
